Results: patent US20050250801A1, “Method of treating cancer with azaspirane compositions” (priority 2003, published 2005)
Read-outs that look alike come from different tables or passages of the source.

Legend:
Experiment in all cases: NCI in vitro SRB assay, Renal Cancer
Assay type in all cases: cell-based
RXF 393 = conditions: RXF 393
Method: (§1) An in vitro assay which tested the ability of N,N,-diethyl-8,8-dipropyl-2-azaspiro[4,5]decane-2-propanamine dimaleate (Compound 1) to inhibit the growth of known cancer cell lines was performed by the National Cancer Institute in accordance with standard procedures. See: Lin, Z. X., Hoult, J. R., and Raman, A. Sulphorhodamine B assay for measuring proliferation of a pigmented melanocyte cell line and its application to the evaluation of crude drugs used in the treatment of vitiligo. J Ethnopharmacol. 66: 141-150, 1999. Briefly, selected tumor cell lines were cultured in media containing five different concentrations of Compound 1. After 48 hours of continuous exposure, a sulforhodamine B (SRB) assay was used to estimate cell viability or growth via optical measurements.
(§2) From the measurements, the following values were determined: 1) the concentration of Compound 1 at which a tumor cell growth inhibition of 50% (relative to control) occurs (GI50), 2) the concentration of Compound 1 at which no growth occurs (total growth inhibition, TGI), and 3) the concentration of Compound 1 at which the […] (LC 50). […] FIG. 6 illustrates, graphically, tumor cell growth as a function of Compound 1 concentration of the scanned tumor cell lines.

ACHN = conditions: for GI50: Homo sapiens
Method: as §1, §2

CAKI-1 = conditions: for CC50 / GI50: Homo sapiens
Method: as §1, §2

UO-31 = conditions: for CC50 / GI50: Homo sapiens
Method: as §1, §2

A498 = conditions: for GI50: Homo sapiens
Method: as §1, §2

[1] = read-out: Log10 GI50 (converted)
[2] = CAKI-1, Log10 conc -4.0 Moles/L
[3] = CAKI-1, Log10 conc -5.0 Moles/L
[4] = CAKI-1, Log10 conc -6.0 Moles/L
[5] = CAKI-1, Log10 conc -7.0 Moles/L
[6] = CAKI-1, Log10 conc -8.0 Moles/L

How did the “Percent Growth” value (RXF 393; Log10 conc -6.0 Moles/L) turn out when `CCCC1(CCC)CCC2(CCN(CCCN(CC)CC)C2)CC1.O=C(O)/C=C\C(=O)O.O=C(O)/C=C\C(=O)O` [Compound 1, N,N,-diethyl-8,8-dipropyl-2-azaspiro[4,5]decane-2-propanamine dimaleate] was run?
The value was 84%.

And the “Mean Optical Densities” value (RXF 393; Log10 conc -7.0 Moles/L)?
Its value is 1.028.

And the “Percent Growth” value (RXF 393; Log10 conc -7.0 Moles/L)?
The value was 95%.

And the “Mean Optical Densities” value (RXF 393; Log10 conc -8.0 Moles/L)?
The value was 1.017.

And the “Percent Growth” value (RXF 393; Log10 conc -8.0 Moles/L)?
Its value is 94%.

What about the “Log10 TGI” value (ACHN) of the same compound?
Its value is −5.55.

What about the TGI (ACHN) of the same compound?
Its TGI is 2.81 µM.

What about the GI50 (ACHN; read-out: GI50) of the same compound?
The GI50 was 1490 nM.

What about the GI50 (ACHN; [1]) of the same compound?
Its GI50 is 1480 nM.

What about the “Mean Optical Densities” value (ACHN; Log10 conc -4.0 Moles/L) of the same compound?
Its value is −0.041.

And the “Percent Growth” value (ACHN; Log10 conc -4.0 Moles/L)?
Its value is −100%.

What about the “Mean Optical Densities” value (ACHN; Log10 conc -5.0 Moles/L) of the same compound?
Its value is −0.031.

And the “Percent Growth” value (ACHN; Log10 conc -5.0 Moles/L)?
The value was −100%.

What about the “Mean Optical Densities” value (ACHN; Log10 conc -6.0 Moles/L) of the same compound?
The value was 0.705.

And the “Percent Growth” value (ACHN; Log10 conc -6.0 Moles/L)?
The value was 81%.

And the “Mean Optical Densities” value (ACHN; Log10 conc -7.0 Moles/L)?
Its value is 0.711.

And the “Percent Growth” value (ACHN; Log10 conc -7.0 Moles/L)?
Its value is 83%.

What about the “Mean Optical Densities” value (ACHN; Log10 conc -8.0 Moles/L) of the same compound?
The value was 0.721.

What about the “Percent Growth” value (ACHN; Log10 conc -8.0 Moles/L) of the same compound?
Its value is 85%.

And the “Log10 TGI” value (CAKI-1; CAKI-1)?
Its value is −5.49.

And the TGI (CAKI-1; CAKI-1)?
Its TGI is 3.27 µM.

And the “Mean Optical Densities” value (CAKI-1; [2])?
Its value is 0.136.

What about the “Percent Growth” value (CAKI-1; [2]) of the same compound?
The value was −83%.

What about the “Mean Optical Densities” value (CAKI-1; [3]) of the same compound?
The value was 0.150.

And the “Percent Growth” value (CAKI-1; [3])?
The value was −81%.

And the “Mean Optical Densities” value (CAKI-1; [4])?
The value was 1.691.

And the “Percent Growth” value (CAKI-1; [4])?
The value was 86%.

What about the “Mean Optical Densities” value (CAKI-1; [5]) of the same compound?
The value was 1.607.

What about the “Percent Growth” value (CAKI-1; [5]) of the same compound?
The value was 78%.

And the “Mean Optical Densities” value (CAKI-1; [6])?
Its value is 1.646.

And the “Percent Growth” value (CAKI-1; [6])?
Its value is 82%.

And the CC50 (CAKI-1; CAKI-1, read-out: LC50)?
Its CC50 is 6.51 µM.

What about the CC50 (CAKI-1; CAKI-1, read-out: Log10 LC50 (converted)) of the same compound?
The CC50 was 6.46 µM.

And the GI50 (CAKI-1; CAKI-1, read-out: GI50)?
The GI50 was 1650 nM.

And the GI50 (CAKI-1; CAKI-1, read-out: Log10 GI50 (converted))?
Its GI50 is 1660 nM.

And the CC50 (UO-31; UO-31, read-out: LC50)?
The CC50 was 5.03 µM.

What about the CC50 (UO-31; UO-31, read-out: Log10 LC50 (converted)) of the same compound?
The CC50 was 5.01 µM.

What about the GI50 (UO-31; UO-31, read-out: GI50) of the same compound?
The GI50 was 1200 nM.

And the GI50 (UO-31; UO-31, read-out: Log10 GI50 (converted))?
Its GI50 is 1200 nM.

What about the “Log10 TGI” value (UO-31; UO-31) of the same compound?
The value was −5.61.

And the TGI (UO-31; UO-31)?
The TGI was 2.45 µM.

What about the “Mean Optical Densities” value (UO-31; UO-31, Log10 conc -4.0 Moles/L) of the same compound?
The value was 0.039.

And the “Percent Growth” value (UO-31; UO-31, Log10 conc -4.0 Moles/L)?
The value was −87%.

And the “Mean Optical Densities” value (UO-31; UO-31, Log10 conc -5.0 Moles/L)?
The value was 0.006.

What about the “Percent Growth” value (UO-31; UO-31, Log10 conc -5.0 Moles/L) of the same compound?
Its value is −98%.

What about the “Mean Optical Densities” value (UO-31; UO-31, Log10 conc -6.0 Moles/L) of the same compound?
The value was 0.833.

What about the “Percent Growth” value (UO-31; UO-31, Log10 conc -6.0 Moles/L) of the same compound?
The value was 63%.

And the “Mean Optical Densities” value (UO-31; UO-31, Log10 conc -7.0 Moles/L)?
The value was 1.056.

What about the “Percent Growth” value (UO-31; UO-31, Log10 conc -7.0 Moles/L) of the same compound?
The value was 89%.

And the “Mean Optical Densities” value (UO-31; UO-31, Log10 conc -8.0 Moles/L)?
Its value is 1.076.

What about the “Percent Growth” value (UO-31; UO-31, Log10 conc -8.0 Moles/L) of the same compound?
The value was 91%.

And the “Log10 TGI” value (A498)?
The value was −5.50.

What about the TGI (A498) of the same compound?
The TGI was 3.13 µM.

What about the GI50 (A498; read-out: GI50) of the same compound?
The GI50 was 1680 nM.

And the GI50 (A498; [1])?
The GI50 was 1700 nM.

And the “Mean Optical Densities” value (A498; Log10 conc -4.0 Moles/L)?
The value was 0.157.

And the “Percent Growth” value (A498; Log10 conc -4.0 Moles/L)?
Its value is −85%.

And the “Mean Optical Densities” value (A498; Log10 conc -5.0 Moles/L)?
Its value is 0.065.

And the “Percent Growth” value (A498; Log10 conc -5.0 Moles/L)?
Its value is −94%.

What about the “Mean Optical Densities” value (A498; Log10 conc -6.0 Moles/L) of the same compound?
The value was 1.336.

What about the “Percent Growth” value (A498; Log10 conc -6.0 Moles/L) of the same compound?
Its value is 92%.

And the “Mean Optical Densities” value (A498; Log10 conc -7.0 Moles/L)?
The value was 1.327.

What about the “Percent Growth” value (A498; Log10 conc -7.0 Moles/L) of the same compound?
Its value is 89%.

And the “Mean Optical Densities” value (A498; Log10 conc -8.0 Moles/L)?
Its value is 1.297.

And the “Percent Growth” value (A498; Log10 conc -8.0 Moles/L)?
Its value is 79%.
